Measured values published in patent US20100063009A1, “Pharmaceutical Combination Comprising 6-Dimethylaminomethyl-1-(3-methoxy-phenyl)-cyclohexane-1.3-diol and an NSAID” (GRUENENTHAL GmbH, priority 2008, published 2010).
Values joined by “and” are separate entries in the source; they are usually repeats but may differ in a detail not shown here. Equal values may be shown once. Where a name gives a salt, the structure may show the parent alone. Read-outs that look alike come from different tables or passages of the source.

System: inflamed rat hind paw
Experiment: Randall-Selitto test in rats (carrageenan-induced inflammatory pain, mechanical nociceptive threshold)
Assay type: in vivo
Conditions: for ED50: Rattus norvegicus; for timepoint of peak effect: substance applied alone, A i.v., NSAIDs i.p.
Experimental: The weight ratios of the components (a) and (b) that will lead to a supra-additive effect (synergistic effect) of the inventive pharmaceutical composition may be determined via the test of Randall and Selitto as described in Arch. Int. Pharmacodyn., 1957, 111: 409 to 419, which is a model for inflammatory pain. The respective part of the literature is hereby incorporated by reference and forms part of the present disclosure.
Acute inflammation is induced by an intraplantar injection of 0.1 ml of a carrageenan solution (0.5% in distilled water) into one hind paw. The mechanical nociceptive threshold is measured 4 hours after carrageenan injection using an Algesiometer (Ugo Basile, Italy). The device generates a mechanical force with a linear increase over time. The force is applied to the dorsal surface of the inflamed rat hind paw via a cone-shaped stylus with a rounded tip (2 mm tip diameter). The nociceptive threshold is defined as the force (in grams) at which the rat vocalises (cut-off force 250 g). The mechanical nociceptive threshold is measured at different timepoints after the drug or vehicle administration. The antinociceptive and antihyperalgesic activity of the tested substance is expressed as percentages of the maximal possible effect (% MPE). The group size is n=10.
The interactions studies presented herein were performed using equieffective doses of the two components, calculated from the ratio of the respective ED50 values of the components if administered alone.
The route of administration was intravenous (i.v.) for (1RS,3RS,6RS)-6-dimethylaminomethyl-1-(3-methoxy-phenyl)-cyclohexane-1,3-diol hydrochloride (A) and intraperitoneal (i.p.) for the NSAIDs diclofenac, ibuprofen, metamizol-sodium and naproxen. […] (diclofenac, ibuprofen) and 45 min p. appl. (naproxen, metamizol-sodium).

[1] = ip, measured at peak effect 30 min (diclofenac, ibuprofen) or 45 min (naproxen, metamizol-sodium) p. appl., n=10, read-out: ED50 of the NSAID applied alone

COc1cccc([C@@]2(O)C[C@H](O)CC[C@@H]2CN(C)C)c1 (racemic) [A, (1RS,3RS,6RS)-6-dimethylaminomethyl-1-(3-methoxy-phenyl)-cyclohexane-1,3-diol hydrochloride]
ED50 (iv, measured at peak effect 15 min p. appl., 4 h after carrageenan, % MPE, n=10, 95% range in brackets, read-out: ED50 of A applied alone): 15.8 mg/kg | ED50 of A applied alone (i.v., measured at peak effect 15 min p. appl., 4 h after carrageenan, % MPE, n=10, 95% range in brackets, hydrochloride): 14.5 (13.3-15.6) mg/kg and 14.1 (13.2-15.1) mg/kg | timepoint of peak effect: 15 min p. appl.

O=C(O)Cc1ccccc1Nc1c(Cl)cccc1Cl [Diclofenac, diclofenac]
ED50 [1]: 146 mg/kg | timepoint of peak effect: 30 min p. appl.

CC(C)Cc1ccc(C(C)C(=O)O)cc1 (centres unmarked) [Ibuprofen]
ED50 [1]: 139 mg/kg | timepoint of peak effect: 30 min p. appl.

Cc1c(N(C)CS(=O)(=O)[O-])c(=O)n(-c2ccccc2)n1C.[Na+] [Metamizol-Sodium, metamizol-sodium]
ED50 of the NSAID applied alone (i.p., measured at peak effect 30 min (diclofenac, ibuprofen) or 45 min (naproxen, metamizol-sodium) p. appl., n=10): 88.1 (77.5-98.3) mg/kg | timepoint of peak effect: 45 min p. appl.

COc1ccc2cc([C@H](C)C(=O)O)ccc2c1 [Naproxen, naproxen]
ED50 [1]: 164 mg/kg | timepoint of peak effect: 45 min p. appl.
